From patent US10889834B2, “Methods and compositions for enhancing targeted transgene integration” (Sangamo BioSciences, Inc., priority 2014, dated 2021)

Test system: Hepa1-6 cells
Test: Factor IX production by ELISA in Hepa1-6 cells treated with topoisomerase inhibitor and FIX donor AAV (integration at albumin locus)
Type: cell-based, mouse
Conditions: 0.5-5 uM inhibitor, FIX measured at days 4 and 7
Method: For instance, one-hundred thousand Hepa1-6 cells were seeded per well of a 24-well dish and grown until 70% confluent in DMEM+10% FBS. […] Cells were then transfected with one of two Factor IX (FIX)-containing adeno-associated viruses (AAVs) donors (e.g., AAV2/6 vectors at 6e10 vg per sample) and Factor IX production on days 0-4 (day 4) and days 5-7 (day 7) assayed by ELISA.
The FIX donor AAVs contain homology arms (complementary to the 3′ end of the mouse albumin gene) flanking an albumin 3′ intron splice acceptor-albumin 3′ exon-2A-Factor IX cassette. In one instance, the Factor IX cassette was positioned in the forward orientation (F), allowing Factor IX to be produced if the DNA was integrated into the Albumin locus through HDR by the use of the homology arms.
Therefore, we determined the stimulation of Factor IX integration/expression that is specific to integration at the albumin gene in the proper orientation; this number is roughly equal to the Factor IX produced from the forward-orientation virus minus the Factor IX produced by the reverse-orientation virus.

CC[C@@]1(O)C(=O)OCc2c1cc1n(c2=O)Cc2cc3ccccc3nc2-1 [camptothecin]
FIX protein (forward-orientation AAV donor) (human FIX AAV donor in forward (F) orientation): dose-dependent increase in FIX protein | FIX protein (reverse-orientation AAV donor) (human FIX AAV donor in reverse (R) orientation): generally not
